{"source": "patent US20030008309A1", "about": "“Microarrays and methods for evaluating activity of compounds having estrogen-like activity” (National Institute of Advanced Industrial Science and …, priority 2000, published 2003)", "system": "MCF-7 cells", "test": "Microarray evaluation of estrogen-like activity (expression levels of estrogen-responsive genes/ESTs, Cy3/Cy5) in MCF-7 cells", "data": [{"smiles": "Clc1cc2c(cc1Cl)Oc1cc(Cl)c(Cl)cc1O2", "note": "[dioxin, 2,3,7,8-tetrachlorodibenzo-p-dioxin]", "values": [{"measurement": "evaluation value considering weighting factor (K)", "result": 32.90}, {"measurement": "Σ(E(example)n), summation value of expression levels", "setting": "10 nM treatment, n=1 to 203, independently determined", "result": 207.49}, {"measurement": "evaluation value = Σ[|log{BDE(A)n/BDE(Estrogen)n}|], n=1 to 203", "setting": "listed as example 2", "result": 46.19}]}]}
